The mortality is the percentage killed.

This is an account of results in patent US6203824A (priority 1992, dated 2001).

The subject of series [1] is Oryzsephilus surinamensis. As to conditions: in vivo; cited from earlier work.
Series [2] concerns Rhyzopertha dominica. As to conditions: in vivo; cited from earlier work.
For series [3], the system named is Sitophilus granarius. As to conditions: in vivo; cited from earlier work.
Series [4] concerns Sitophilus oryzae. Particulars: in vivo; cited from earlier work.
Series [5] has as its system Tenebroides mauritanicus. Particulars: in vivo; cited from earlier work.
For series [6], the system named is Tribolium confusum. Particulars: in vivo; cited from earlier work.
For series [7], the system named is Trogoderma granarium. As to conditions: in vivo; cited from earlier work.
For series [8] the following is noted: 25° C.; cited from earlier work.
Series [9] concerns Tribolium castaneum. Particulars: in vivo; cited from earlier work.
For series [10], the system named is grains of Australian standard white wheat and malting barley. As to conditions: in vivo.
The format of series [11] is physicochemical. As to conditions: empty vial, 15 min.
Series [12] concerns mould. As to conditions: in vivo.
Series [13] concerns S. oryzae. On the set-up: species or system Sitophilus oryzae. As to conditions: in vivo.
The test system of series [14] is L. destructor. Particulars: in vivo.
For series [15], the system named is Liposcelis bostrychophilus. As to conditions: in vivo.
Series [16] deals with B. tyroni. As to conditions: queensland fruit fly, in vivo, inhaled.
Series [17] relates to R. dominica. As to conditions: in vivo.
The test system of series [18] is S. oryzae. Particulars: in vivo.
For series [19] the following is noted: moist soil.
In series [20] the test system is Mice. As to conditions: cited from earlier work.
For series [21], the system named is Rabbits. Particulars: rabbit, in vivo; cited from earlier work.
Series [22] deals with Cold blooded animals. Particulars: in vivo; cited from earlier work.
Series [23] deals with B. tyroni. The experiment in a line: whole plant or invertebrate. Particulars: Bactrocera, inhaled or nasal, read-out: Corrected mortality.
For series [24], the system named is Coptotermes acinaciformis. The experiment in a line: whole plant or invertebrate. Particulars: inhaled or nasal, 24 h, read-out: Corrected mortality.

Several values for one entry are separate records, joined by “and”; a condition that tells them apart may be missing. Equal values may be shown once. Read-outs that look alike come from different tables or passages of the source.

For the molecule `C=CC#N` [Acrylonitrile, acrylonitrile], the “LC95 (concentration x time product)” value is reported as 8.4 in [1], 8.4 in series [2], 10.8 in series [4] and 48.0 in series [7]. Besides, the figures for the “LC99 (concentration x time product)” value in series [3], in series [5] and in [6] were 11.0, 40.0 and 19.5, respectively.
Turning to `S=C=S` [Carbon disulphide, carbon disulphide], the “LC95 (concentration x time product)” value in [1] is given as 408.0; in series [2], 294.0; in series [4], 300.0; in series [7], 696.0. For the same molecule, the results for the “LC99 (concentration x time product)” value in series [3], in [5] and in series [6] were 325.0, 828.00 and 560.00, respectively. In addition, in series [8], the solubility in water is on record as 2.2 grams per litre.
For the molecule `ClC(Cl)(Cl)Cl` [Carbon tetrachloride, carbon tetrachloride], the “LC99 (concentration x time product)” value in [3] is 495.0; in series [6], 025.0. In addition, in series [4], the “LC95 (concentration x time product)” value is 220.0. Moreover, in [5], the “LD50 (concentration x time product)” value is recorded as 400.00. For the same molecule, in series [9], the “LC90 (concentration x time product)” value is given as 600.0.
For `BrCCBr` [Ethylene dibromide, ethylene dibromide], the “LC95 (concentration x time product)” value in [1] is on record as 19.2; in series [2], 37.2; in series [4], 60.0; in [7], 80.0. Besides, the “LC99 (concentration x time product)” value in [3] is reported as 34.5; in series [5] it was 125.00; in series [6], 31.0. For the same molecule, the “LD95 (concentration x time product)” value in [9] is reported as 22.0.
Turning to `ClCCCl` [Ethylene dichloride, ethylene dichloride], the “LC95 (concentration x time product)” value in [1] is 462.0; in series [2], 636.0; in [4], 738.0; in [7] it was 2080.5. Further, the entries for the “LC99 (concentration x time product)” value in series [3], in series [5] and in series [6] were 230.0, 1728.0 and 365.0, respectively. In addition, in series [9], the “LC90 (concentration x time product)” value is recorded as 462.0.
Consider `C1CO1` [Ethylene oxide, ethylene oxide], for which the “LC95 (concentration x time product)” value in series [1] is listed as 60.0; in [2], 69.6; in series [4], 62.0; in [7] it was 176.0. For the same molecule, the “LC99 (concentration x time product)” value was 36.0 in series [3], 175.0 in series [5] and 127.5 in series [6]. In addition, the “LD99 (concentration x time product)” value in series [9] is 135.0.
On to `CBr` [Methyl bromide, methyl bromide], for which the “LC95 (concentration x time product)” value in series [1] is listed as 40.8; in series [2], 33.0; in series [7] it was 136.0. The figures for the “LC99 (concentration x time product)” value in [3], in [5] and in series [6] were 28.0, 115.0 and 64.0, respectively. The “LD99 (concentration x time product)” value in series [4] is reported as 30.0. For the same molecule, in series [9], the “LD95 (concentration x time product)” value was 62.0. Further, in series [8], the solubility in water is listed as 13.4 grams per litre.
For `P` [Phosphine, phosphine], the “LD99 (concentration x time product)” value in [1] is reported as 0.96; in series [2], 0.6; in [4] it was 0.36. Also, the “LC99 (concentration x time product)” value in series [3] is reported as 1.01; in [5], ~5.0; in [6] it was 0.48. In addition, the “LC90 (concentration x time product)” value in series [9] is on record as 11.5. Also, the “100% mort. (concentration x time product)” value in series [7] is reported as 331.0.
`O=S(=O)(F)F` [Sulphuryl fluoride, sulphuryl fluoride]: the “LC99 (concentration x time product)” value is reported as 17.5 in series [3], 81.5 in series [5] and 55.0 in [6].
Take `O=C=S` [carbonyl sulphide]: in [10], the “% Germination, final count (10 days)” value was 96% and 93% and 92%; the “% Germination, first count (4 days)” value was 93% and 91% and 89%; the “effect on seed germination or vigour” value is on record as “no effect on seed germination or vigour was detected”. Besides, the “recovery of the calculated applied dose” value in [11] was 98.4 per cent. Besides, the “discolouration of wheat by mould” value in [12] is on record as “no discolouration occurred”. In addition, the “Number of insects emerging from culture” value in series [13] amounted to 2. The “Minimum effective tested dose” value in series [14] amounted to 120. Moreover, in series [14] (mite, inhaled, 6 h), the Corrected mortality is 100%. Moreover, in [15], the “Minimum effective tested dose” value is listed as 22.5 and the “psocids dead after exposure” value is recorded as “all 200 of the psocids were dead”. The Corrected mortality in series [16] (6 h) was found to be 100%. Moreover, the Corrected mortality in [16] (24 h) was determined as 100%. Also, in [17], the No. emerging was determined as 2. Besides, in series [17] (rhyzopertha dominica, 24 h), the “control of all immature stages of R. dominica, on average” value was 93.4 per cent. This molecule also showed a No. emerged in series [18] of 2. In addition, the “concentration as per cent of the calculated initial concentration” value in [19] (2 min) was 62 per cent. In addition, in [19] (5 h), the “concentration as per cent of the calculated initial concentration” value is given as 18 per cent. The “concentration as per cent of the calculated initial concentration” value in series [19] (20 h) is listed as 5.9 per cent. Moreover, the solubility in water in series [8] was 1.4 grams per litre. Besides, in [20] (1200 ppm), the time to death is 35 min. Besides, in series [20] (2900 ppm), the time to death is listed as 11/2. The time to death in series [20] (8900 ppm) is 3/4. Also, in series [20] (mouse, in vivo), the “concentration in air above which mice die quickly” value is “more than 0.3 per cent” and the effects after exposure entry is reported as “no perceptible effects”. Moreover, in series [21], the “concentration in air above which rabbits die quickly” value was “more than 0.3 per cent” and the effects after exposure result is reported as “some ill effects”. For the same molecule, the “resistance compared with warm-blooded animals” value in series [22] was “more resistance”. In series [23] (6 h), the mortality at 120 mg h/L came out at 12.6%, the mortality at 150 mg h/L was found to be 13.5%, the mortality at 210 mg h/L stood at 100% and the mortality at 300 mg h/L worked out at 91.7%. In series [23] (6 h), the mortality at 360 mg h/L was found to be 100%, the mortality at 480 mg h/L came to 99.2%, the mortality at 600 mg h/L came to 100% and the mortality at 720 mg h/L turned out to be 99.7%. Also, the mortality at 870 mg h/L in series [23] (6 h) was determined as 93.3%. Besides, in [23] (24 h), the mortality at 120 mg h/L stood at 37.1%, the mortality at 180 mg h/L turned out to be 4.9%, the mortality at 240 mg h/L is 19.5% and the mortality at 366 mg h/L was 53.3%. In addition, in series [23] (24 h), the mortality at 420 mg h/L was determined as 88.8%, the mortality at 480 mg h/L was 98.3%, the mortality at 540 mg h/L stood at 98.3% and the mortality at 600 mg h/L was determined as 100%. Besides, in series [24], the mortality at 192 mg h/L came out at 0% and the mortality at 600 mg h/L was determined as 100%.
